# Data taken from patent US20090203701A1, “PROPHYLACTIC AND/OR THERAPEUTIC AGENT FOR RHEUMATOID ARTHRITIS” (KOWA CO., LTD, priority 2006, published 2009).
# Tested on: rat collagen-induced arthritis model
# Assay: Edema suppression in both hindlimbs, rat collagen-induced arthritis model
# Assay type: in vivo
# Parameters: key to Edema Index: sum of both hindlimb edema volumes on days 14, 18, 22, 26
# Details: for Relative index: control group = 1.000; for Edema Index: average ± standard error
# Experimental: For the cases of combined administration and respective single drug administrations of 2-benzyl-5-(4-chlorophenyl)-6-[4-(methylthio)phenyl]-2H-pyridazin-3-one and atorvastatin calcium hydrate, the effect of edema suppression in both hindlimbs was determined by the following method (rat collagen-induced arthritis model) (FDA, CBER, CDER, CDRH: Guidance for industry—Clinical development programs for drugs, devices, and biological products for the treatment of rheumatoid arthritis (RA)—.(1999)).
# For the test animal, female Lewis rats (LEW/Crj) (obtained from Charles River Laboratories Japan, Inc.) were used.
# For each 8-week-old LEW/Crj rat, the volume of a portion from the ankle to the toe tip of both hindlimbs (hereinafter, both hindlimbs volume) was measured by means of a plethysmometer for small animals (TK-101CMP, product of Unicom), and the total volume was taken as the both hindlimbs volume upon initiation of test (hereinafter, Pre value). This Pre value was used as an index to divide the rats into groups by randomized block design by the single variable, so that the values in the respective groups averaged out.
# The collagen emulsion for sensitization that was used to induce arthritis in rats, was prepared by homogenizing a 0.3% Type II collagen solution (Collagen Research Center), Adjuvant Peptide (Peptide Institute, Inc.) and Adjuvant Incomplete Freund (DIFCO), using a Handy Micro Homogenizer (Microtec Nition, Co., Ltd.) under ice-cooling. The collagen emulsion thus prepared was intracutaneously administered at 10 sites in the back of each rat at a dose of 0.1 mL/site, to perform initial sensitization of the rat. Seven days after the initial sensitization, 0.12 mL of the same collagen emulsion was intracutaneously administered to the root of tail in each rat, to perform booster sensitization.
# Drug administration was conducted from the day after the initial sensitization through 26 days thereafter. The group for sole administration of 2-benzyl-5-(4-chlorophenyl)-6-[4-(methylthio)phenyl]-2H-pyridazin-3-one (Drug A) was orally administered with the drug at 3 mg/kg, twice a day, in the morning (9:00 to 11:00) and in the evening (15:30 to 17:30). The group for sole administration of atorvastatin calcium hydrate (Drug B1) was orally administered with the drug at 30 or 100 mg/kg, once a day, in the afternoon (11:30 to 13:30). On the other hand, the group for combined administration of Drug A and Drug B1 was orally administered with Drug A at 3 mg/kg in the morning (9:00 to 11:00) and in the evening (15:30 to 17:30), and with Drug B1 at 30 or 100 mg/kg in the afternoon (11:30 to 13:30).
# 14, 18, 22 and 26 days after the initial sensitization, the both hindlimbs volume was measured again for each rat, and the difference between each of the values and the Pre value was determined to calculate the edema volume for both hindlimbs. The sum of the edema volumes for both hindlimbs measured 14, 18, 22 and 26 days after the initial sensitization was calculated as Edema Index, and this was taken as an index for the effects of the drugs.
# Table 1 and FIG. 1 present the Edema Indices of the group for sole administration of 3 mg/kg of Drug A, the group for sole administration of 30 mg/kg of Drug B1, and the group for combined administration of both drugs. Furthermore, Table 2 and FIG. 2 present the Edema Indices of the group for sole administration of 3 mg/kg of Drug A, the group for sole administration of 100 mg/kg of Drug B1, and the group for combined administration of both drugs. The Edema Index is expressed in the average value±standard error of 8 rats in each group. Furthermore, the decrease rate is indicated as ((X−Y)/X)×100 (X: average Edema Index for control group, Y: average Edema Index for each group)
SMILES,"Relative index (Table 1 experiment, sole Drug A 3 mg/kg orally twice a day)","Decrease rate (%) (Table 1 experiment, sole Drug A 3 mg/kg orally twice a day, vs control group Edema Index)","Edema Index (Table 1 experiment, sole administration of Drug A 3 mg/kg orally twice a day, day 1-26 after initial sensitization, sum of edema volumes on days 14, 18, 22, 26)","Relative index (Table 2 experiment, sole Drug A 3 mg/kg orally twice a day)","Decrease rate (%) (Table 2 experiment, sole Drug A 3 mg/kg orally twice a day, vs control group)","Edema Index (Table 2 experiment, sole administration of Drug A 3 mg/kg orally twice a day, day 1-26)","Relative index (Table 1 experiment, sole Drug B1 30 mg/kg orally once a day)","Decrease rate (%) (Table 1 experiment, sole Drug B1 30 mg/kg orally once a day, vs control group)","Edema Index (Table 1 experiment, sole administration of Drug B1 30 mg/kg orally once a day, day 1-26)","Relative index (Table 2 experiment, sole Drug B1 100 mg/kg orally once a day)","Decrease rate (%) (Table 2 experiment, sole Drug B1 100 mg/kg orally once a day, vs control group)","Edema Index (Table 2 experiment, sole administration of Drug B1 100 mg/kg orally once a day, day 1-26)","Effects on edema (Edema Index), in words (sole Drug B1 at the doses of 30 and 100 mg/kg)"
"CSc1ccc(-c2nn(Cc3ccccc3)c(=O)cc2-c2ccc(Cl)cc2)cc1 [Drug A, 2-benzyl-5-(4-chlorophenyl)-6-[4-(methylthio)phenyl]-2H-pyridazin-3-one]",0.935,6.5,5.23 ± 0.45,0.790,21.0,4.89 ± 0.57,,,,,,,
"CC(C)c1c(C(=O)Nc2ccccc2)c(-c2ccccc2)c(-c2ccc(F)cc2)n1CC[C@@H](O)C[C@@H](O)CC(=O)O [Drug B1, atorvastatin calcium hydrate]",,,,,,,1.086,−8.6,6.07 ± 0.30,1.060,−6.0,6.57 ± 0.31,did not show any effects on edema
